Measurements: PubChem BioAssay AID2060893 (Molecular Pharmacology Branch, DTP, NCI, 2025)
“And” between values parts separate entries of the source, which are not always exact repeats. Identical values can stand only once.

Test system: K86415-001-R-J1-PDC complex spheroids, viability
Assay: Anticancer human tumor K86415-001-R-J1-PDC patient-derived lung adenocarcinoma cell line growth inhibition [RAS]
Conditions: for viability, T/C: stronger effect = lower value
Description: RAS pathway inhibitors in Combinations in Complex Spheroids
A high-throughput screen of multi-cell type tumor spheroids was designed to identify active combinations of RAS pathway inhibitors and targeted small molecules. Complex spheroids include a stromal component modeled by human endothelial cells (HUVEC) and fibroblasts modeled by human mesenchymal stem cells (MSCs). The concentration ranges selected for each drug and investigational agent were based upon clinically achievable concentrations if the clinical Cmax of the agent was known.
Compounds. The drugs and investigational agents: abemaciclib (NSC768073), cobimetinib (NSC768068), divarasib (GDC6063, NSC841802), docetaxel (NSC628503), GDC-1971 (RLY-1971, NSC841576), gemcitabine (NSC613327), inavolisib (NSC800729), ipatasertib (NSC767898), KB-0742 (NSC834161), MRTX-1133 (NSC836407), osimertinib (NSC779217), RMC-4630 (NSC839698), RMC-6236 (NSC851965), RMC-6291 (NSC852671), Ro-3306 (NSC812927), sapanisertib (NSC764658), SN-38 (NSC673596), staurosporine (NSC755774), SY5609 (NSC837396), and tovorafenib (DAY101, NSC766906), were obtained from the National Cancer Institute (NCI) Developmental Therapeutics Program Chemical Repository. The FDA-approved anticancer drug set is available from the NCI Developmental Therapeutics Program. […] The stock solutions were prepared in dimethyl sulfoxide (DMSO, Sigma-Aldrich, St. Louis, MO, cat. D2650) at 800-fold the tested concentration and stored at -70 degrees C prior to their use. All drugs and investigational agents were tested over a range starting from a high concentration at or near the clinical Cmax and decreasing in half-log increments. If the clinical Cmax for an agent had not been determined, the highest concentration tested was 10 microM.
Cell Culture. All cells were maintained in an incubator at 37 degrees C and 5% CO2 with 95% humidity. The PDC lines were cultured according to standard operating procedures established by the NCI PDMR. All PDCs were thawed and cultured in Matrigel-coated flasks prepared with a working solution of 1X Ham's F-12 nutrient mix, without supplementation (Invitrogen, Waltham, MA, cat. 11765054), 100 U/mL penicillin-streptomycin (Invitrogen, cat. 15140122), and 2.5% Matrigel (Corning Inc., Corning, NY, cat. 354248) for the first three passages. The 362531-283-R-J2-PDC and 782815-120-R-J1-PDC lines were cultured in 6C/Colon 1B media, which includes advanced DMEM/F-12 (Thermo Fisher Scientific, cat. 12634028), 10 mM HEPES (Thermo Fisher Scientific, cat. 15630080), 1X GlutaMAX supplement (Thermo Fisher Scientific, cat. 35050061), 0.1 mg/mL primocin (InvivoGen, San Diego, CA, cat. ant-pm-2), 10% defined fetal bovine serum, heat inactivated (HyClone Laboratories Inc., Logan, UT, cat. SH30070.03HI), 50% L-WRN conditioned media (ATCC, cat. CRL-3276), 1.25 mM N-Acetyl-L-cysteine (Sigma-Aldrich, cat. A9165), 10 mM nicotinamide (Sigma-Aldrich, cat. N0636), 1X B-27 supplement (Thermo Fisher Scientific, cat. 17504044), 1X N-2 supplement (Thermo Fisher Scientific, cat. 17502048), 50 ng/mL human EGF (Thermo Fisher Scientific, cat. PHG0311), and 10 microM Y-27632 dihydrochloride (Tocris Bioscience, cat. 1254). The K12877-001-R-J1-PDC line was cultured in 6I media, which includes all 6C/Colon 1B media plus 10 ng/mL human FGF-10 (PeproTech, cat. 100-26), 1 ng/mL human FGF-2 (PeproTech, cat. 100-18B), 1 µM prostaglandin E2 (Tocris Bioscience, cat. 2296), […] hydrocortisone (Sigma-Aldrich, cat. H4001), and […] bovine insulin (Sigma-Aldrich, cat. I6634). The K86415-001-R-J1-PDC line was cultured in 6D media, which includes all 6C/Colon 1B media components minus the L-WRN conditioned media. The 485176-168-R4-J1-PDC was cultured in PANC media, which includes all 6C/Colon 1B media plus 100 ng/mL human FGF-10 (PeproTech, cat. 100-26), 500 nM SB-431542 (Selleckchem, cat. S1067), and 10 nM gastrin (Tocris Bioscience, cat. 3006). […]

[1] = compound alone, run of 07/15/2024
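Also: spheroids exposed to agents for seven days before readout.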

## C#Cc1c(F)ccc2cc(O)cc(-c3ncc4c(N5CC6CCC(C5)N6)nc(OCC56CCCN5CC(F)C6)nc4c3F)c12 (configuration not stated)
Compound 0.0316 µM
  viability, T/C: 101% [middle of 8 runs]
Compound 0.1 µM
  viability, T/C: 106% [middle of 8 runs]
Compound 0.316 µM
  viability, T/C: 88.2% [middle of 8 runs]
Compound 1 µM
  viability, T/C: 65.2% [middle of 8 runs]
Compound 3.16 µM
  viability, T/C: 38.2% [middle of 8 runs]
Compound 10 µM
  viability, T/C: 17.8% [middle of 8 runs]
[1]
  IC50: 1.81 µM [middle of 7 runs]

## C=CC(=O)N1CCN(c2nc(OCC3CCCN3C)nc3c(F)c(-c4nc(N)cc(C)c4C(F)(F)F)c(Cl)cc23)C(C)C1 (configuration not stated)
Compound 0.00316 µM
  viability, T/C: 18.3% [middle of 12 runs]
Compound 0.01 µM
  viability, T/C: 13.4% [middle of 12 runs]
Compound 0.0316 µM
  viability, T/C: 11.5% [middle of 12 runs]
Compound 0.1 µM
  viability, T/C: 9.89% [middle of 12 runs]
Compound 0.316 µM
  viability, T/C: 10.8% [middle of 12 runs]
Compound 1 µM
  viability, T/C: 10.7% [middle of 11 runs]
[1]
  IC50: < 3.16 nM
Curve of compound
  IC50: < 3.16 nM

## C=CC(=O)Nc1cc(Nc2nccc(-c3cn(C)c4ccccc34)n2)c(OC)cc1N(C)CCN(C)C
Compound 0.00316 µM
  viability, T/C: 105% [middle of 4 runs]
Compound 0.01 µM
  viability, T/C: 98.8% [middle of 4 runs]
Compound 0.0316 µM
  viability, T/C: 101% [middle of 4 runs]
Compound 0.1 µM
  viability, T/C: 85.1% (2×) and 93.4% and 76.6%
Compound 0.316 µM
  viability, T/C: 67.2% [middle of 4 runs]
Compound 1 µM
  viability, T/C: 40.9% [middle of 4 runs]
Curve of compound
  IC50: 659 nM [middle of 4 runs]

## CC(C)NCC(C(=O)N1CCN(c2ncnc3c2C(C)CC3O)CC1)c1ccc(Cl)cc1 (configuration not stated)
Compound 0.0316 µM
  viability, T/C: 109% [middle of 4 runs]
Compound 0.316 µM
  viability, T/C: 97.9% [middle of 4 runs]
Compound 1 µM
  viability, T/C: 92.2% [middle of 4 runs]
Compound 3.16 µM
  viability, T/C: 65% [middle of 4 runs]
Compound 10 µM
  viability, T/C: 49.1% [middle of 4 runs]

## CC(C)n1nc(-c2ccc3oc(N)nc3c2)c2c(N)ncnc21
Compound 0.000316 µM
  viability, T/C: 108% [middle of 4 runs]
Compound 0.001 µM
  viability, T/C: 104% [middle of 4 runs]
Compound 0.00316 µM
  viability, T/C: 104% [middle of 4 runs]
Compound 0.01 µM
  viability, T/C: 96.1% [middle of 4 runs]
Compound 0.0316 µM
  viability, T/C: 64.5% [middle of 4 runs]
Compound 0.1 µM
  viability, T/C: 32.2% [middle of 4 runs]
Curve of compound
  IC50: 52.6 nM [middle of 4 runs]

## CC(Nc1ccc2c(c1)OCCn1cc(N3C(=O)OCC3C(F)F)nc1-2)C(N)=O (configuration not stated)
Compound 0.0316 µM
  viability, T/C: 94.1% [middle of 4 runs]
Compound 0.1 µM
  viability, T/C: 86% [middle of 4 runs]
Compound 0.316 µM
  viability, T/C: 71.7% [middle of 4 runs]
Compound 1 µM
  viability, T/C: 54.5% [middle of 4 runs]
Compound 3.16 µM
  viability, T/C: 40.5% [middle of 4 runs]
Compound 10 µM
  viability, T/C: 29.4% [middle of 4 runs]
Curve of compound
  IC50: 1.48 µM [middle of 4 runs]

## CC1(C)CCC(Nc2ncc(C(F)(F)F)c(-c3c[nH]c4c(P(C)(C)=O)c(C#N)ccc34)n2)CN1 (configuration not stated)
Compound 0.000949 µM
  viability, T/C: 110% and 123% (2×) and 109%
Compound 0.003 µM
  viability, T/C: 120% [middle of 4 runs]
Compound 0.00949 µM
  viability, T/C: 75.7% [middle of 4 runs]
Compound 0.03 µM
  viability, T/C: 58.1% [middle of 4 runs]
Compound 0.0949 µM
  viability, T/C: 60.8% [middle of 4 runs]
Compound 0.3 µM
  viability, T/C: 60.1% [middle of 4 runs]
Curve of compound
  IC50: > 300 nM

## CC1(O)CCCC1n1c(=O)c(C(F)F)cc2cnc(NC3CCN(S(C)(=O)=O)CC3)nc21 (configuration not stated)
Compound 0.0316 µM
  viability, T/C: 83.8% and 84.3% and 80.5% (2×)
Compound 0.1 µM
  viability, T/C: 87.1% [middle of 4 runs]
Compound 0.316 µM
  viability, T/C: 65.7% [middle of 4 runs]
Compound 1 µM
  viability, T/C: 72% (2×) and 75% and 80.8%
Compound 10 µM
  viability, T/C: 10.4% [middle of 4 runs]
Curve of compound
  IC50: 5.04 µM [middle of 4 runs]

## CCN1CCN(Cc2ccc(Nc3ncc(F)c(-c4cc(F)c5nc(C)n(C(C)C)c5c4)n3)nc2)CC1
Compound 0.00316 µM
  viability, T/C: 97.9% [middle of 4 runs]
Compound 0.01 µM
  viability, T/C: 90.2% [middle of 4 runs]
Compound 0.0316 µM
  viability, T/C: 78.5% [middle of 4 runs]
Compound 0.1 µM
  viability, T/C: 71.3% [middle of 4 runs]
Compound 0.316 µM
  viability, T/C: 70.2% [middle of 4 runs]
Compound 1 µM
  viability, T/C: 71.4% [middle of 4 runs]
Curve of compound
  IC50: > 1000 nM

## CCc1c2c(nc3ccc(O)cc13)-c1cc3c(c(=O)n1C2)COC(=O)[C@]3(O)CC
Compound 0.000949 µM
  viability, T/C: 102% (2×) and 97.3% and 88.2%
Compound 0.003 µM
  viability, T/C: 38.8% [middle of 4 runs]
Compound 0.00949 µM
  viability, T/C: 23.2% [middle of 4 runs]
Compound 0.03 µM
  viability, T/C: 17.6% [middle of 4 runs]
Compound 0.0949 µM
  viability, T/C: 13.3% [middle of 4 runs]
Compound 0.3 µM
  viability, T/C: 5.27% [middle of 4 runs]
Curve of compound
  IC50: 2.52 nM [middle of 4 runs]

## CCn1c(-c2cc(N3CCN(C)CC3)cnc2C(C)OC)c2c3cc(ccc31)-c1csc(n1)CC(NC(=O)C1CC1C)C(=O)N1CCCC(N1)C(=O)OCC(C)(C)C2 (configuration not stated)
Compound 0.000949 µM
  viability, T/C: 50.3% [middle of 8 runs]
Compound 0.003 µM
  viability, T/C: 22.4% [middle of 8 runs]
Compound 0.00949 µM
  viability, T/C: 10.2% [middle of 8 runs]
Compound 0.03 µM
  viability, T/C: 6.3% [middle of 8 runs]
Compound 0.0949 µM
  viability, T/C: 3.96% [middle of 8 runs]
Compound 0.3 µM
  viability, T/C: 3.36% [middle of 8 runs]

## CCn1c(-c2cccnc2C(C)OC)c2c3cc(ccc31)N1CCOC(CC(NC(=O)C(C(C)C)N(C)C(=O)C3(F)CCN(C(=O)C#CC(C)(C)N(C)C)CC3)C(=O)N3CCCC(N3)C(=O)OCC(C)(C)C2)C1 (configuration not stated)
Compound 0.000949 µM
  viability, T/C: 41.9% [middle of 8 runs]
Compound 0.003 µM
  viability, T/C: 13.8% [middle of 8 runs]
Compound 0.00949 µM
  viability, T/C: 11.6% [middle of 7 runs]
Compound 0.03 µM
  viability, T/C: 12.7% [middle of 8 runs]
Compound 0.0949 µM
  viability, T/C: 14.9% [middle of 8 runs]
Compound 0.3 µM
  viability, T/C: 14% [middle of 8 runs]
Compound alone, run of 07/09/2024
  IC50: < 0.949 nM

## C[C@@H](NC(=O)c1ncnc(N)c1Cl)c1ncc(C(=O)Nc2cc(C(F)(F)F)c(Cl)cn2)s1
Compound 0.0316 µM
  viability, T/C: 113% [middle of 4 runs]
Compound 0.1 µM
  viability, T/C: 113% [middle of 4 runs]
Compound 0.316 µM
  viability, T/C: 97.1% and 109% (2×) and 92.8%
Compound 1 µM
  viability, T/C: 87.8% [middle of 4 runs]
Compound 3.16 µM
  viability, T/C: 77.2% [middle of 4 runs]
Compound 10 µM
  viability, T/C: 64.7% [middle of 4 runs]
Curve of compound
  IC50: > 10000 nM

## Nc1ccn(C2OC(CO)C(O)C2(F)F)c(=O)n1 (configuration not stated)
Compound 0.00316 µM
  viability, T/C: 106% [middle of 4 runs]
Compound 0.01 µM
  viability, T/C: 97.5% [middle of 4 runs]
Compound 0.0316 µM
  viability, T/C: 78.7% [middle of 4 runs]
Compound 0.1 µM
  viability, T/C: 61.3% [middle of 4 runs]
Compound 0.316 µM
  viability, T/C: 31.2% [middle of 4 runs]
Compound 1 µM
  viability, T/C: 22.3% [middle of 4 runs]
Curve of compound
  IC50: 136 nM [middle of 4 runs]

## O=C(c1ccc(F)c(F)c1Nc1ccc(I)cc1F)N1CC(O)([C@@H]2CCCCN2)C1
Compound 0.00316 µM
  viability, T/C: 103% [middle of 4 runs]
Compound 0.01 µM
  viability, T/C: 90% [middle of 4 runs]
Compound 0.0316 µM
  viability, T/C: 59% [middle of 4 runs]
Compound 0.1 µM
  viability, T/C: 46% [middle of 4 runs]
Compound 0.316 µM
  viability, T/C: 22.4% [middle of 4 runs]
Compound 1 µM
  viability, T/C: 8.88% [middle of 4 runs]
Curve of compound
  IC50: 68 nM [middle of 4 runs]
